According to paper PMC4932537, “Search for Potent and Selective Aurora A Inhibitors Based on General Ser/Thr Kinase Pharmacophore Model” (Pharmaceuticals, 2016):
Structures can show the parent of a compound that is named as a salt.

Key:
Haspin = biological target: T1, Haspin (Homo sapiens, UniProt Q8TF76); test: Haspin kinase inhibition; format: biochemical; conditions: Table 1
T1 sequence (Q8TF76 1-798): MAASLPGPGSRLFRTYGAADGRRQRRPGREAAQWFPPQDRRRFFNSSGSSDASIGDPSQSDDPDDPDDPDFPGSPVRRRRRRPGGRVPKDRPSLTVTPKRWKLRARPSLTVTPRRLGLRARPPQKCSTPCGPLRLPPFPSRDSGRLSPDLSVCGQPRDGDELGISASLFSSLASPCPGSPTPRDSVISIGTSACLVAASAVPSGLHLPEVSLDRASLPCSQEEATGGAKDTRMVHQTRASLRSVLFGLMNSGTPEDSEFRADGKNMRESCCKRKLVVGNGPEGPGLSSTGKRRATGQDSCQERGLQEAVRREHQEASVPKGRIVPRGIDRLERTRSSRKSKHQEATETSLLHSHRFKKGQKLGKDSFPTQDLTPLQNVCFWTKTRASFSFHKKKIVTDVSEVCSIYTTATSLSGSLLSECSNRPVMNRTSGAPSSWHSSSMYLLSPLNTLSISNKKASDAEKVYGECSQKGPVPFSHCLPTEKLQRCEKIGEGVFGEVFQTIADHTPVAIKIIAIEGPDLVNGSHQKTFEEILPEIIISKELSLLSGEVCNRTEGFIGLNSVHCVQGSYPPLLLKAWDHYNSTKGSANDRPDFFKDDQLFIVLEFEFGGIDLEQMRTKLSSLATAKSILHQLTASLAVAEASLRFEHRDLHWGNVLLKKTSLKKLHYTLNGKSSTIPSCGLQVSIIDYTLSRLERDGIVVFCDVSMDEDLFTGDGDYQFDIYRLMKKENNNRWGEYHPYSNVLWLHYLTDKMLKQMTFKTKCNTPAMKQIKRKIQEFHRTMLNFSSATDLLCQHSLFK
Text: Table 1 Activity of compounds fitting to general pharmacophore model against selected Ser/Thr kinases. | column: Haspin, IC50, μM

Aurora B = Aurora B (Homo sapiens, UniProt Q96GD4); test: Aurora B kinase inhibition; format: biochemical; conditions: Table 1
Chain of Aurora B (Q96GD4 whole entry): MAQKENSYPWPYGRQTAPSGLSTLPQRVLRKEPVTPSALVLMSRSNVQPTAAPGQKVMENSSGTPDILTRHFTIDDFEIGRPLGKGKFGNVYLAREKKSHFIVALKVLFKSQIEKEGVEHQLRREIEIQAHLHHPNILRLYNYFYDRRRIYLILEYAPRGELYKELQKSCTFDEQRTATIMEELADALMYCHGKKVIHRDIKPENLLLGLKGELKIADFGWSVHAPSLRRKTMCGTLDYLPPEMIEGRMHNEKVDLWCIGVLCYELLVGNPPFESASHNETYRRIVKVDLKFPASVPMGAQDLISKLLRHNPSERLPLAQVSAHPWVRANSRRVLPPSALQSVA

Aurora A = biological target: T2, Aurora A (Homo sapiens, UniProt O14965); test: Aurora A kinase inhibition (biochemical assay); conditions: Table 1; read-out: Aurora A, IC50
T2 sequence (O14965 1-403): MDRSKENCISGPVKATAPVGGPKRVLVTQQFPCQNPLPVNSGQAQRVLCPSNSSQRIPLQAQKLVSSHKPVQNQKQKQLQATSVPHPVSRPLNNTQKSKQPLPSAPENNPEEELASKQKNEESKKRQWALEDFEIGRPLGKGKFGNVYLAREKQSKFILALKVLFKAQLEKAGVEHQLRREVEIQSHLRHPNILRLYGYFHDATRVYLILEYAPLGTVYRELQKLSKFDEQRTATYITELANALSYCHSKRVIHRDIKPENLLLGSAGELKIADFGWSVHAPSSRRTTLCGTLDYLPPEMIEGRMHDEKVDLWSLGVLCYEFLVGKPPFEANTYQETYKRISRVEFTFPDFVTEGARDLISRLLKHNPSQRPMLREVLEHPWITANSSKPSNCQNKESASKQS

SMILES	IC50 (Haspin) [nM]	IC50 (Aurora B) [nM]	IC50 (Aurora A) [nM]
O=C(C1CNCCO1)N1CCC(c2cccc(Nc3ncc(-c4ccccc4)s3)n2)CC1 (stereo not drawn) [Compound 10, Morpholin-2-yl(4-(6-(5-phenylthiazol-2-ylamino)pyridin-2-yl)piperidin-1-yl)methanone]	7800 ± 810	840 ± 90	8380 ± 840
CCCc1cnc(Nc2cccc(C3CCN(C(=O)CN(C)C)CC3)n2)s1 [Compound 3, 2-(Dimethylamino)-1-(4-(6-(5-propylthiazol-2-ylamino)pyridin2-yl)piperidin-1-yl)ethanone]	7060 ± 680	1760 ± 160	1950 ± 220
CCCc1cnc(Nc2cc(CC)nc(C3CCN(C(=O)C(C)(C)N)CC3)n2)s1 [Compound 8, 2-Amino-1-(4-(4-ethyl-6-(5-propylthiazol-2-ylamino)pyrimidin-2-yl)piperidin-1-yl)-2-methylpropan-1-one]	2900 ± 430	2050 ± 240	3580 ± 430
CCCc1cnc(Nc2cc(C(C)C)nc(C3CCN(C(=O)C(C)(C)N)CC3)n2)s1 [Compound 7, 2-Amino-1-(4-(4-isopropyl-6-(5-propylthiazol-2-ylamino)pyrimidin-2-yl)piperidin-1-yl)-2-methylpropan-1-one]	3670 ± 370	2250 ± 230	2790 ± 300
CCCc1cnc(Nc2cccc(C3CCN(C(=O)C(C)(C)N)CC3)n2)s1 [Compound 1, 2-Amino-2-methyl-1-(4-(6-(5-propylthiazole-2-ylamino)pyridin-2-yl)piperidin-1-yl)propan-1-one hydrochloride]	1490 ± 150	1450 ± 170	2060 ± 150
CCCc1cnc(Nc2cccc(C3CCN(C(=O)[C@@H](C)N)CC3)n2)s1 [Compound 6, (R)-2-Amino-1-(4-(6-(5-propylthiazol-2-ylamino)-pyridin-2-yl)piperidin-1-yl)propan-1-one]	1120 ± 110	1750 ± 180	1670 ± 170
CCCc1cnc(Nc2cccc(C3CCN(C(=O)CN)CC3)n2)s1 [Compound 4, 2-Amino-1-(4-(6-(5-propylthiazol-2-ylamino)pyridin-2-yl)piperidin-1-yl)ethanone]	80 ± 8	1720 ± 190	2080 ± 250
CCCc1cnc(Nc2cccc(C3CCN(C(=O)CNC)CC3)n2)s1 [Compound 5, 2-(Methylamino)-1-(4-(6-(5-propylthiazol-2-ylamino)pyridin-2-yl)piperidin-1-yl)ethanone]	430 ± 34	910 ± 80	1440 ± 130
CC(C)(N)C(=O)N1CCC(c2cccc(Nc3ncc(-c4ccccc4)s3)n2)CC1 [Compound 9, 2-Amino-2-methyl-1-(4-(6-(5-phenylthiazol-2-ylamino)pyridine-2-yl)propan-1-one hydrochloride]	270 ± 19	8020 ± 800	3170 ± 330
